Measured values published in US4465668A, “Method for improving intestinal absorption of cephalosporin derivatives” (Asahi Kasei Kogyo Kabushiki Kaisha, priority 1981, dated 1984).
Values belong to the compound of their own block, whether it stands above or below them.

Test: Absorption test: blood concentration after oral administration to rats
Conditions: rat; for Blood concentration of Compound (I): suspended in 0.7% CMC aqueous solution, group average (5 animals); for Blood Concentration of Compound (II): dissolved in buffer aqueous solution pH 7; for Blood Concentration of Compound (II) / Blood Concentration of Compound (III) / Blood Concentration of Compound (IV) / Blood Concentration of Compound (V) / Blood Concentration of Compound (VI) / Blood Concentration of Compound (VII) / Blood Concentration of Compound (VIII) / Blood Concentration of Compound (IX): group average; for Blood Concentration of Compound (III) / Blood Concentration of Compound (IV) / Blood Concentration of Compound (V) / Blood Concentration of Compound (VI) / Blood Concentration of Compound (VII) / Blood Concentration of Compound (VIII) / Blood Concentration of Compound (IX): suspended in 0.7% CMC
Experimental: The absorption test of the compounds were measured by the following methods.
Male Wistar rats weighing 180-250 g were fed with only water overnight. The next day the rats were orally administered with 50 mg/kg of a test compound which was suspended in a 0.7% CMC aqueous solution. The concentration of the compound in blood of the tested animals (one group consisting of 5 animals) was measured 0.5, 1, 2 and 4 hours after the administration by Bioassay method by using Bacillus subtilis ATCC 6633 strain as an indicator bacteria. In the measurement, an ordinary culture medium was employed, and the preparation of the standard solution and other method were carried out in according to Japanese Antibiotical Pharmaceutical Standards. Further, the concentration of the compound in blood was also measured by high performance liquid chromatography. The blood concentration shown in the examples was an average value of each animal group.
The absorption test of 7-[2-(2-thienyl)-acetoamido]-3-[2-(L-prolyl-L-lysylaminomethyl-1,3,4-thiadiazolyl)-thiomethyl]-3-cephem-4-carboxylic acid formic acid salt was carried out by orally administering the salt which was dissolved in a buffer aqueous solution having the pH of 7. The results are as follows:
The same procedures as described in Example 8 were repeated except that other oligopeptides were employed instead of the α-tert-butyloxycarbonyl-L-prolyl-ε-tert-butyloxycarbonyl-L-lysine. The absorption test of these compounds thus obtained was carried out in the same manner as described in Example 8.

Structure (SMILES): CC(C)C[C@H](N)C(=O)N[C@@H](Cc1ccccc1)C(=O)OC(C(=O)NC1C(=O)N2C(C(=O)O)=C(CSc3nnnn3C)CS[C@H]12)c1ccccc1.O=CO (stereo partly drawn) [Example 1, 7-D-(O-L-leucyl-L-phenylalanyl)-mandelamido-3-(1-methyl-1H-tetrazol-5-yl-thiomethyl)-3-cephem-4-carboxylic acid formic acid salt]
Blood concentration of Compound (I) (0.5 hr after oral 50 mg/kg): 4510 ng/mL | Blood concentration of Compound (I) (1 hr after oral 50 mg/kg): 3700 ng/mL | Blood concentration of Compound (I) (2 hrs after oral 50 mg/kg): 1930 ng/mL | Blood concentration of Compound (I) (4 hrs after oral 50 mg/kg): 830 ng/mL

Structure (SMILES): NCCCC[C@H](NC(=O)[C@@H]1CCCN1)C(=O)NCc1nnc(SCC2=C(C(=O)O)N3C(=O)C(NC(=O)Cc4cccs4)C3SC2)s1.O=CO (stereo partly drawn) [Example 8, 7-[2-(2-thienyl)-acetoamido]-3-[2-(L-prolyl-L-lysylaminomethyl-1,3,4-thiadiazolyl)-thiomethyl]-3-cephem-4-carboxylic acid formic acid salt]
Blood Concentration of Compound (II) (0.5 hr after oral 50 mg/kg): 2140 ng/mL | Blood Concentration of Compound (II) (1 hr after oral 50 mg/kg): 1770 ng/mL | Blood Concentration of Compound (II) (2 hrs after oral 50 mg/kg): 1040 ng/mL | Blood Concentration of Compound (II) (4 hrs after oral 50 mg/kg): 70 ng/mL

Blood Concentration of Compound (III) (0.5 hr after oral 50 mg/kg): 1960 ng/mL | Blood Concentration of Compound (III) (1 hr after oral 50 mg/kg): 2370 ng/mL | Blood Concentration of Compound (III) (2 hrs after oral 50 mg/kg): 1030 ng/mL | Blood Concentration of Compound (III) (4 hrs after oral 50 mg/kg): 240 ng/mL
Structure (SMILES): Cc1nnc(SCC2=C(C(=O)OCOC(=O)[C@H](CCCCN)NC(=O)[C@@H](N)CC(C)C)N3C(=O)C(NC(=O)Cc4csc(N)n4)C3SC2)s1.Cl (stereo partly drawn) [Example 15, 7-[2-(2-amino-4-thiazolyl)acetoamido-3-(5-methyl-1,3,4-thiadiazolyl)thiomethyl]-3-cephem-4-carboxylic acid L-leucyl-L-lysyloxymethyl ester hydrochloric acid salt]

Structure (SMILES): CC(=O)OCC1=C(C(=O)O)N2C(=O)[C@@H](NC(=O)CSCCNC(=O)[C@H](CC(C)C)NC(=O)[C@@H](N)Cc3ccccc3)[C@H]2SC1.O=C(O)C(F)(F)F [Example 19, 7β-(2-L-phenylalanyl-L-leucylamidoethylthioacetoamido)-3-acetoxymethyl-3-cephem-4-carboxylic acid trifluoroacetic acid salt]
Blood Concentration of Compound (IV) (0.5 hr after oral 50 mg/kg): 1070 ng/mL | Blood Concentration of Compound (IV) (1 hr after oral 50 mg/kg): 210 ng/mL | Blood Concentration of Compound (IV) (2 hrs after oral 50 mg/kg): 90 ng/mL | Blood Concentration of Compound (IV) (4 hrs after oral 50 mg/kg): < 10 ng/mL

Structure (SMILES): CO/N=C(\C(=O)N[C@@H]1C(=O)N2C(C(=O)O)=C(COC(C)=O)CS[C@H]12)c1csc(NC(=O)[C@H](Cc2ccccc2)NC(=O)[C@@H](N)CC(C)C)n1.O=CO [Example 22, 7β-[2-(2-L-leucyl-L-phenylalanylamidothiazol-4-yl)-(Z)-2-methoxyiminoacetoamido]cephalosporanic acid formic acid salt]
Blood Concentration of Compound (V) (0.5 hr after oral 50 mg/kg): 1690 ng/mL | Blood Concentration of Compound (V) (1 hr after oral 50 mg/kg): 1830 ng/mL | Blood Concentration of Compound (V) (2 hrs after oral 50 mg/kg): 1530 ng/mL | Blood Concentration of Compound (V) (4 hrs after oral 50 mg/kg): 1030 ng/mL

Blood Concentration of Compound (VI) (0.5 hr after oral 50 mg/kg): 2110 ng/mL | Blood Concentration of Compound (VI) (1 hr after oral 50 mg/kg): 1670 ng/mL | Blood Concentration of Compound (VI) (2 hrs after oral 50 mg/kg): 1100 ng/mL | Blood Concentration of Compound (VI) (4 hrs after oral 50 mg/kg): < 100 ng/mL
Structure (SMILES): CO/N=C(\C(=O)N[C@@H]1C(=O)N2C(C(=O)O)=C(CSc3nnnn3C)CS[C@H]12)c1csc(NC(=O)[C@H](CCCCN)NC(=O)[C@@H](N)CC(C)C)n1.O=CO [Example 25, 7β-[2-(2-L-leucyl-L-lysylamidothiazol-4-yl)-(Z)-2-methoxyiminoacetoamido]-3-[(1-methyl-1H-tetrazol-5-yl)-thiomethyl]-3-cephem-4-carboxylic acid formic acid salt]

Structure (SMILES): CO/N=C(\C(=O)N[C@@H]1C(=O)N2C(C(=O)O)=CCS[C@H]12)c1csc(NC(=O)[C@H](Cc2ccccc2)NC(=O)[C@@H](N)CCSC)n1.O=CO [Example 27, 7β-[2-(2-L-methionyl-L-phenylalanylamidothiazol-4-yl)-(Z)-2-methoxyiminoacetamido]-3-cephem-4-carboxylic acid formic acid salt]
Blood Concentration of Compound (VII) (0.5 hr after oral 50 mg/kg): 2130 ng/mL | Blood Concentration of Compound (VII) (1 hr after oral 50 mg/kg): 1840 ng/mL | Blood Concentration of Compound (VII) (2 hrs after oral 50 mg/kg): 1000 ng/mL | Blood Concentration of Compound (VII) (4 hrs after oral 50 mg/kg): 210 ng/mL

Blood Concentration of Compound (VIII) (0.5 hr after oral 50 mg/kg): 3140 ng/mL | Blood Concentration of Compound (VIII) (1 hr after oral 50 mg/kg): 2370 ng/mL | Blood Concentration of Compound (VIII) (2 hrs after oral 50 mg/kg): 1040 ng/mL | Blood Concentration of Compound (VIII) (4 hrs after oral 50 mg/kg): 320 ng/mL
Structure (SMILES): COC1(NC(=O)CSCC#N)C(=O)N2C(C(=O)OCOC(=O)[C@H](CCCCN)NC(=O)[C@@H](N)CC(C)C)=C(CSc3nnnn3C)CSC21.Cl (stereo partly drawn) [Example 29, 7β-[(cyanomethyl)thio]acetoamido-7α-methoxy-3-[(1-methyl-1H-tetrazol-5-yl)thio]methyl-3-cephem-4-carboxylic acid L-leucyl-L-lysyloxymethyl ester hydrochloric acid salt]

Blood Concentration of Compound (IX) (0.5 hr after oral 50 mg/kg): 5640 ng/mL | Blood Concentration of Compound (IX) (1 hr after oral 50 mg/kg): 3840 ng/mL | Blood Concentration of Compound (IX) (2 hrs after oral 50 mg/kg): 1870 ng/mL | Blood Concentration of Compound (IX) (4 hrs after oral 50 mg/kg): 740 ng/mL
Structure (SMILES): Cc1nnc(SCC2=C(C(=O)OCOC(=O)[C@H](CCCCN)NC(=O)[C@@H](N)CC(C)C)N3C(=O)C(NC(=O)Cn4cnnn4)C3SC2)s1.Cl (stereo partly drawn) [Example 35, 7-[1-(1H)-tetrazolylacetamido]-3-[2-(5-methyl-1,3,4-thiazolyl)-thiomethyl]-3-cephem-4-carboxylic acid L-leucyl-L-lysyloxymethyl ester hydrochloric acid salt]

Structure (SMILES): Cn1nnnc1SCC1=C(C(=O)O)N2C(=O)C(NC(=O)[C@H](OC(=O)[C@@H](N)Cc3ccccc3)c3ccccc3)C2SC1.O=CO (stereo partly drawn) [compound 1, 7-D-(O-L-phenylalanyl)-mandelamido-3-(1-methyl-1H-tetrazol-5-yl-thiomethyl)-3-cephem-4-carboxylic acid formic acid salt, reference compound]
Blood concentration of Compound (I) (0.5 hr after oral 50 mg/kg): 210 ng/mL | Blood concentration of Compound (I) (1 hr after oral 50 mg/kg): 230 ng/mL | Blood concentration of Compound (I) (2 hrs after oral 50 mg/kg): 80 ng/mL | Blood concentration of Compound (I) (4 hrs after oral 50 mg/kg): 20 ng/mL
